Experimental data as given in PubChem BioAssay AID1259407 (Chemical Carcinogenesis Research Information System (CCRIS), 2018).
Active and inactive are the calls of the source. No rule for the calls is given here.

System: CCRIS mutagenicity, Ames/micronucleus/aberration tests
Test: CCRIS mutagenicity studies
[1] = Test System: AMES SALMONELLA TYPHIMURIUM, Strain/Indicator: TA98, Metabolic Activation: NONE, Method: PREINCUBATION
[2] = Test System: AMES SALMONELLA TYPHIMURIUM, Strain/Indicator: TA98, Metabolic Activation: NONE, Method: STANDARD PLATE
[3] = Test System: AMES SALMONELLA TYPHIMURIUM, Strain/Indicator: TA100, Metabolic Activation: NONE, Method: PREINCUBATION
[4] = Test System: AMES SALMONELLA TYPHIMURIUM, Strain/Indicator: TA100, Metabolic Activation: NONE, Method: STANDARD PLATE
[5] = Test System: AMES SALMONELLA TYPHIMURIUM, Strain/Indicator: TA102, Metabolic Activation: NONE, Method: STANDARD PLATE

Measured: mutagenic call

CN(Cc1cnc2nc(N)nc(N)c2n1)c1ccc(C(=O)N[C@@H](CCC(=O)O)C(=O)O)cc1
active: End Point: IN VIVO CHROMOSOMAL ABERRATIONS, Test System: BONE MARROW, Species: MOUSE, Strain/Sex: SWISS/MALE, FEMALE, Route: INTRAPERITONEAL active; positive (structural changes) | End Point: IN VIVO MICRONUCLEUS, Test System: BONE MARROW, Species: MOUSE, Strain/Sex: SWISS/MALE, FEMALE, Route: INTRAPERITONEAL active; positive | End Point: In vitro micronucleus, Test System: Human lymphoblastoid TK6 cells, Metabolic Activation: None active; positive (p<0.001) | Test System: E. COLI, Strain/Indicator: WP2, Metabolic Activation: NONE, Method: STANDARD PLATE active; positive | Test System: MOUSE LYMPHOMA, Strain/Indicator: L5178Y (TK+/TK-), Metabolic Activation: NONE, Method: MICROWELL active; positive | Test System: MOUSE LYMPHOMA, Strain/Indicator: L5178Y (TK+/TK-), Metabolic Activation: NONE, Method: SUSPENSION/PLATE active; positive | Test System: MOUSE LYMPHOMA, Strain/Indicator: L5178Y (TK+/TK-), Metabolic Activation: RAT, LIVER, S-9, AROCLOR 1254, Method: SUSPENSION/PLATE active; positive | Test System: MOUSE LYMPHOMA, Strain/Indicator: L5178Y (TK+/TK-), Metabolic Activation: S-9, Method: MICROWELL active; positive
inactive: End Point: IN VITRO MICRONUCLEUS, Test System: V79 CELLS, Metabolic Activation: NONE inactive; negative | [1] inactive; negative | [2] inactive; negative | Test System: AMES SALMONELLA TYPHIMURIUM, Strain/Indicator: TA98, Metabolic Activation: S-9, Method: PREINCUBATION inactive; negative | Test System: AMES SALMONELLA TYPHIMURIUM, Strain/Indicator: TA98, Metabolic Activation: S-9, Method: STANDARD PLATE inactive; negative | [3] inactive; negative | [4] inactive; negative | Test System: AMES SALMONELLA TYPHIMURIUM, Strain/Indicator: TA100, Metabolic Activation: S-9, Method: PREINCUBATION inactive; negative | Test System: AMES SALMONELLA TYPHIMURIUM, Strain/Indicator: TA100, Metabolic Activation: S-9, Method: STANDARD PLATE inactive; negative | [5] inactive; negative | Test System: AMES SALMONELLA TYPHIMURIUM, Strain/Indicator: TA1537, Metabolic Activation: NONE, Method: STANDARD PLATE inactive; negative | Test System: CHINESE HAMSTER V-79, Strain/Indicator: V-79 (HGPRT)/6-THIOGUANINE, Metabolic Activation: NONE inactive; negative | Test System: CHINESE HAMSTER V-79, Strain/Indicator: V-79/6-THIOGUANINE, Metabolic Activation: NONE, Method: SUSPENSION/PLATE inactive; negative | Test System: CHINESE HAMSTER V-79, Strain/Indicator: V-79/6-THIOGUANINE, Metabolic Activation: RAT, LIVER, HEPATOCYTES, Method: SUSPENSION/PLATE inactive; negative | Test System: E. COLI, Strain/Indicator: WP2 (HCR), Metabolic Activation: NONE, Method: STANDARD PLATE inactive; negative | Test System: E. COLI, Strain/Indicator: WP2 (HCR), Metabolic Activation: S-9, Method: STANDARD PLATE inactive; negative

CCOC(=O)c1[nH]c2ccccc2c1N=Cc1ccc(NC(C)=O)cc1
inactive: Test System: AMES SALMONELLA TYPHIMURIUM, Strain/Indicator: TA97, Metabolic Activation: RAT, LIVER, S-9, AROCLOR 1254, Method: STANDARD PLATE inactive; negative | [2] inactive; negative | Test System: AMES SALMONELLA TYPHIMURIUM, Strain/Indicator: TA98, Metabolic Activation: RAT, LIVER, S-9, AROCLOR 1254, Method: STANDARD PLATE inactive; negative | [4] inactive; negative | Test System: AMES SALMONELLA TYPHIMURIUM, Strain/Indicator: TA100, Metabolic Activation: RAT, LIVER, S-9, AROCLOR 1254, Method: STANDARD PLATE inactive; negative | [5] inactive; negative | Test System: AMES SALMONELLA TYPHIMURIUM, Strain/Indicator: TA102, Metabolic Activation: RAT, LIVER, S-9, AROCLOR 1254, Method: STANDARD PLATE inactive; negative
active: Test System: AMES SALMONELLA TYPHIMURIUM, Strain/Indicator: TA97, Metabolic Activation: NONE, Method: STANDARD PLATE active; positive

O=[N+]([O-])c1ccc(CNc2ncnc3nc[nH]c23)cc1
active: Test System: AMES SALMONELLA TYPHIMURIUM, Strain/Indicator: YG1021, Metabolic Activation: RAT, LIVER, S-9, PCB, Method: PREINCUBATION active; positive | Test System: AMES SALMONELLA TYPHIMURIUM, Strain/Indicator: YG1024, Metabolic Activation: NONE, Method: PREINCUBATION active; positive
inactive: Test System: AMES SALMONELLA TYPHIMURIUM, Strain/Indicator: TA98(1,8-DNP), Metabolic Activation: NONE, Method: PREINCUBATION inactive; negative | Test System: AMES SALMONELLA TYPHIMURIUM, Strain/Indicator: TA98(1,8-DNP), Metabolic Activation: RAT, LIVER, S-9, PCB, Method: PREINCUBATION inactive; negative | Test System: AMES SALMONELLA TYPHIMURIUM, Strain/Indicator: TA98(NR), Metabolic Activation: NONE, Method: PREINCUBATION inactive; negative | Test System: AMES SALMONELLA TYPHIMURIUM, Strain/Indicator: TA98(NR), Metabolic Activation: RAT, LIVER, S-9, PCB, Method: PREINCUBATION inactive; negative | [1] inactive; negative | Test System: AMES SALMONELLA TYPHIMURIUM, Strain/Indicator: TA98, Metabolic Activation: RAT, LIVER, S-9, PCB, Method: PREINCUBATION inactive; negative | Test System: AMES SALMONELLA TYPHIMURIUM, Strain/Indicator: TA100(1,8-DNP), Metabolic Activation: NONE, Method: PREINCUBATION inactive; negative | Test System: AMES SALMONELLA TYPHIMURIUM, Strain/Indicator: TA100(1,8-DNP), Metabolic Activation: RAT, LIVER, S-9, PCB, Method: PREINCUBATION inactive; negative | Test System: AMES SALMONELLA TYPHIMURIUM, Strain/Indicator: TA100(NR), Metabolic Activation: NONE, Method: PREINCUBATION inactive; negative | Test System: AMES SALMONELLA TYPHIMURIUM, Strain/Indicator: TA100(NR), Metabolic Activation: RAT, LIVER, S-9, PCB, Method: PREINCUBATION inactive; negative | [3] inactive; negative | Test System: AMES SALMONELLA TYPHIMURIUM, Strain/Indicator: TA100, Metabolic Activation: RAT, LIVER, S-9, PCB, Method: PREINCUBATION inactive; negative | Test System: AMES SALMONELLA TYPHIMURIUM, Strain/Indicator: YG1020, Metabolic Activation: NONE, Method: PREINCUBATION inactive; negative | Test System: AMES SALMONELLA TYPHIMURIUM, Strain/Indicator: YG1020, Metabolic Activation: RAT, LIVER, S-9, PCB, Method: PREINCUBATION inactive; negative | Test System: AMES SALMONELLA TYPHIMURIUM, Strain/Indicator: YG1021, Metabolic Activation: NONE, Method: PREINCUBATION inactive; negative | Test System: AMES SALMONELLA TYPHIMURIUM, Strain/Indicator: YG1024, Metabolic Activation: RAT, LIVER, S-9, PCB, Method: PREINCUBATION inactive; negative | Test System: AMES SALMONELLA TYPHIMURIUM, Strain/Indicator: YG1025, Metabolic Activation: NONE, Method: PREINCUBATION inactive; negative | Test System: AMES SALMONELLA TYPHIMURIUM, Strain/Indicator: YG1025, Metabolic Activation: RAT, LIVER, S-9, PCB, Method: PREINCUBATION inactive; negative | Test System: AMES SALMONELLA TYPHIMURIUM, Strain/Indicator: YG1026, Metabolic Activation: NONE, Method: PREINCUBATION inactive; negative | Test System: AMES SALMONELLA TYPHIMURIUM, Strain/Indicator: YG1026, Metabolic Activation: RAT, LIVER, S-9, PCB, Method: PREINCUBATION inactive; negative | Test System: AMES SALMONELLA TYPHIMURIUM, Strain/Indicator: YG1029, Metabolic Activation: NONE, Method: PREINCUBATION inactive; negative | Test System: AMES SALMONELLA TYPHIMURIUM, Strain/Indicator: YG1029, Metabolic Activation: RAT, LIVER, S-9, PCB, Method: PREINCUBATION inactive; negative
